Literature values in patent publication US5516503A, “Diagnostic composition comprising a binuclear complex, its method of preparation and its use in magnetic resonance imaging” (Guerbet S.A., priority 1989, dated 1996).

Assays:
[1] = information of Berlex Lab.
male mice = conditions: document FR-A-2 596 992

CNC[C@H](O)[C@@H](O)[C@H](O)[C@H](O)CO.CNC[C@H](O)[C@@H](O)[C@H](O)[C@H](O)CO.O=C([O-])CN(CCN(CC(=O)[O-])CC(=O)O)CCN(CC(=O)[O-])CC(=O)O.[Gd+3] [Magnevist, salt of di-N-methylglucamine (dimeglumine) of the complex Gd(III)-diethylenetriaminepentaacetic acid (DTPA)]
osmotic pressure [1]: 1940 mosm/kg | LD50 (male mice): 4.45 mmol/kg
